ChEMBL document CHEMBL2440052, “Quinazolinecarboline alkaloid evodiamine as scaffold for targeting topoisomerase I and sirtuins” (Bioorg Med Chem, 2013)
The source made the active and inactive calls. No cut-off for these calls is given here.

What was measured:
[1] = biological target: T1, NAD-dependent protein deacetylase sirtuin-1 (Homo sapiens) (UniProt Q96EB6); assay: Inhibition of recombinant GST-SIRT1 (unknown origin) using KI177 as substrate at 50 uM after 45 mins by fluorescence assay
T1 sequence (whole entry): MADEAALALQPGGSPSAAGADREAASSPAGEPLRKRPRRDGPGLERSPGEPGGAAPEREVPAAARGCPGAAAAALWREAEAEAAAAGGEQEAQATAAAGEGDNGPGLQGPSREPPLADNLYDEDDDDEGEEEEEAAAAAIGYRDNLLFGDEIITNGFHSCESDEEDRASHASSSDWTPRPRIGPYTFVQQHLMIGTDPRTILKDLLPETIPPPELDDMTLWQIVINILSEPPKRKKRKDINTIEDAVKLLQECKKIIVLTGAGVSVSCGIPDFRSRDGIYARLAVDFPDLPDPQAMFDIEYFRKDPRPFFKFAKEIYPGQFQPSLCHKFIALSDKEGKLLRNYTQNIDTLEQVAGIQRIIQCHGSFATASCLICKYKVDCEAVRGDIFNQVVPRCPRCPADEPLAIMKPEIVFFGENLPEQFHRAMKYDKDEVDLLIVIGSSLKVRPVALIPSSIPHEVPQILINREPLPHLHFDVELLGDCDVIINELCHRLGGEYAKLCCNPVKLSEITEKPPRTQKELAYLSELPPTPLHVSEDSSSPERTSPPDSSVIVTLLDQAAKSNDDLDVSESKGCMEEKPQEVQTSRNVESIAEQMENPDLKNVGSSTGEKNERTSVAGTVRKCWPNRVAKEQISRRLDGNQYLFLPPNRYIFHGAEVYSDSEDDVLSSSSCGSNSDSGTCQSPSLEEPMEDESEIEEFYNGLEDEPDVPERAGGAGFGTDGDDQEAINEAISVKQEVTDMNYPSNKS

HepG2 = assay: Cytotoxicity against human HepG2 cells at 15 uM after 72 hrs by MTT assay relative to control; assay type: functional; conditions: HepG2, 72 h, values are per cent of control
MCF7 = assay: Cytotoxicity against human MCF7 cells at 15 uM after 72 hrs by MTT assay relative to control; assay type: functional; conditions: MCF7, 72 h, values are per cent of control
[2] = Cytotoxicity against human H460 cells after 72 hrs by MTT assay; assay type: functional, cell-based; conditions: NCI-H460, 72 h
[3] = biological target: T2, NAD-dependent protein deacetylase sirtuin-2 (Homo sapiens) (UniProt Q8IXJ6); assay: Inhibition of recombinant GST-SIRT2 (unknown origin) using KI179 as substrate at 200 uM after 45 mins by fluorescence assay
T2 sequence (whole entry): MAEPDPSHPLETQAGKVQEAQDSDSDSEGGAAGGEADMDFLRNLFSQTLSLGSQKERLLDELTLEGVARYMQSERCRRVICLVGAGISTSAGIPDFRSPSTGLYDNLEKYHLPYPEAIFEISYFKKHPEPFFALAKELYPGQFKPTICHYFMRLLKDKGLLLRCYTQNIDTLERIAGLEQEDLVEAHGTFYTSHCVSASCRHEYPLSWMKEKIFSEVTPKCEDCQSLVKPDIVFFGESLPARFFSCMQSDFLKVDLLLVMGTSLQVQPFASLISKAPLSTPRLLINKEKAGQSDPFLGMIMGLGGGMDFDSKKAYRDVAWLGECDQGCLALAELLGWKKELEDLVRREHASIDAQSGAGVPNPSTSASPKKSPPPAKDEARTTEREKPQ

[4] = biological target: T3, NAD-dependent protein deacetylase sirtuin-3, mitochondrial (Homo sapiens) (UniProt Q9NTG7); assay: Inhibition of recombinant His-SIRT3 (unknown origin) using KI179 as substrate at 200 uM after 45 mins by fluorescence assay
T3 sequence (whole entry): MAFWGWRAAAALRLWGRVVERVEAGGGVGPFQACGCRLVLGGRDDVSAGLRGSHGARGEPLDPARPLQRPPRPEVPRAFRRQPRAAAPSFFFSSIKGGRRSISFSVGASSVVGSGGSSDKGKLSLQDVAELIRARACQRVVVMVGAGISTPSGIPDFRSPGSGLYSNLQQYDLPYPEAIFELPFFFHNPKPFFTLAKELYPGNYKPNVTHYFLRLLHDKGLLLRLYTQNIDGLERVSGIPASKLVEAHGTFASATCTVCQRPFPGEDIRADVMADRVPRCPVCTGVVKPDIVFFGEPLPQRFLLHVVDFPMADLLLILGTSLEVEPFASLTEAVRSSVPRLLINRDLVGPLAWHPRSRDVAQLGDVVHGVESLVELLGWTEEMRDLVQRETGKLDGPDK

[5] = biological target: T3, NAD-dependent protein deacetylase sirtuin-3, mitochondrial (Homo sapiens); assay: Inhibition of recombinant His-SIRT3 (unknown origin) using KI179 as substrate at 168 uM after 45 mins by fluorescence assay
[6] = biological target: T4, DNA topoisomerase 1 (Homo sapiens) (UniProt P11387); assay: Inhibition of human recombinant topoisomerase 1-mediated relaxation of supercoiled pBR322 at 500 uM after 60 mins by agarose gel electrophoresis
T4 sequence (whole entry): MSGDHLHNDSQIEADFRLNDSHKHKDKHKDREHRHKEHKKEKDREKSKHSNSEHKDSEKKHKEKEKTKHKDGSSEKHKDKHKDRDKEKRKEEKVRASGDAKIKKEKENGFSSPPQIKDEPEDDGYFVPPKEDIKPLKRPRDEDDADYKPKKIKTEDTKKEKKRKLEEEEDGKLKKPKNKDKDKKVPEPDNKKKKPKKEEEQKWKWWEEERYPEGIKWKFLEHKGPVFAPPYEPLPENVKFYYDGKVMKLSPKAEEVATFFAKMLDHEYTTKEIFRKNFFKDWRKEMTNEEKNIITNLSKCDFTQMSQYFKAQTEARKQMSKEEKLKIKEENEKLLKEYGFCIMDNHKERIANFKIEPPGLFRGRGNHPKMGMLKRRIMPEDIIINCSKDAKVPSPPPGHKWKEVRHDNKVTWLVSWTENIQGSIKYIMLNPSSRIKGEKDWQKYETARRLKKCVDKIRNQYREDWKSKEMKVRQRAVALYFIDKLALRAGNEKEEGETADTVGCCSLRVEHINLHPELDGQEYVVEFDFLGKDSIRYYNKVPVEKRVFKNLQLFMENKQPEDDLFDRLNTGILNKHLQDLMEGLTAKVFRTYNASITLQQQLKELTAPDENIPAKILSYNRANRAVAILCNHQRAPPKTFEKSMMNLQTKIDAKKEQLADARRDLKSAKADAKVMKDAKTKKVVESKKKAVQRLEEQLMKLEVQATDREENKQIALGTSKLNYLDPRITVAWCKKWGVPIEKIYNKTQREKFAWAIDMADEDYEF

[7] = biological target: T4, DNA topoisomerase 1 (Homo sapiens); assay: Inhibition of human recombinant topoisomerase 1-mediated DNA cleavage assessed as formation of nicked DNA from supercoiled pBR322 DNA up to 100 uM after 60 mins by agarose gel electrophoresis
[8] = biological target: T4, DNA topoisomerase 1 (Homo sapiens); assay: Inhibition of human recombinant topoisomerase 1-mediated relaxation of supercoiled pBR322 at 50 to 100 uM after 60 mins by agarose gel electrophoresis
[9] = biological target: T2, NAD-dependent protein deacetylase sirtuin-2 (Homo sapiens); assay: Inhibition of recombinant GST-SIRT2 (unknown origin) using KI179 as substrate at 168 uM after 45 mins by fluorescence assay

## CN1c2ccccc2C(=O)N2[C@H](C(=O)N3CCCCC3)Cc3c([nH]c4ccccc34)[C@@H]12
[1]
  inhibition: 6.5%
HepG2
  viability, % of control at 15 µM: 110%
MCF7
  viability, % of control at 15 µM: 85%
[2]
  IC50: 49 µM
[3]
  inhibition: 46%

## CNC(=O)[C@@H]1Cc2c([nH]c3ccccc23)[C@H]2N(C)c3ccccc3C(=O)N12
[1]
  inhibition: 6.4%
HepG2
  viability, % of control at 15 µM: 101%
MCF7
  viability, % of control at 15 µM: 94%
[2]
  IC50: 53 µM
[3]
  inhibition: 62%
[4]
  inhibition: 26%

## CN1c2ccccc2C(=O)N2CCc3c([nH]c4ccccc34)[C@H]21
[5]
  inhibition: 20%
[1]
  inhibition: 4.2%
[6]
  inhibition: Active
[7]
  inhibition: inactive
HepG2
  viability, % of control at 15 µM: 69%
MCF7
  viability, % of control at 15 µM: 44%
[2]
  IC50: 2.6 µM
[8]
  inhibition: inactive
[9]
  inhibition: 71%

## COC(=O)[C@H]1Cc2c([nH]c3ccccc23)[C@@H]2N(C)c3ccccc3C(=O)N12
[1]
  inhibition: 7.8%
HepG2
  viability, % of control at 15 µM: 90%
MCF7
  viability, % of control at 15 µM: 96%
[2]
  IC50: 24 µM
[3]
  inhibition: 78%
[4]
  inhibition: 17%

## CN1c2ccccc2C(=O)N2CCc3c([nH]c4ccccc34)[C@@H]21 [EVODIAMINE]
[5]
  inhibition: 21%
[1]
  inhibition: 1.1%
[6]
  inhibition: Active
[7]
  inhibition: inactive
HepG2
  viability, % of control at 15 µM: 76%
MCF7
  viability, % of control at 15 µM: 51%
[2]
  IC50: 13.2 µM
[8]
  inhibition: inactive
[9]
  inhibition: 58%

## CNC(=O)[C@H]1Cc2c([nH]c3ccccc23)[C@@H]2N(C)c3ccccc3C(=O)N12
HepG2
  viability, % of control at 15 µM: 101%
MCF7
  viability, % of control at 15 µM: 108%
[2]
  IC50: > 30 µM

## CN1c2ccccc2C(=O)N2[C@@H](C(=O)O)Cc3c([nH]c4ccccc34)[C@H]12
HepG2
  viability, % of control at 15 µM: 107%
MCF7
  viability, % of control at 15 µM: 103%
[2]
  IC50: > 30 µM

## CN1c2ccccc2C(=O)N2[C@@H](C(=O)N3CCSCC3)Cc3c([nH]c4ccccc34)[C@H]12
HepG2
  viability, % of control at 15 µM: 89%
MCF7
  viability, % of control at 15 µM: 105%
[2]
  IC50: > 100 µM

## CN1c2ccccc2C(=O)N2[C@H](C(=O)N3CCOCC3)Cc3c([nH]c4ccccc34)[C@@H]12
[1]
  inhibition: 4.1%
HepG2
  viability, % of control at 15 µM: 88%
MCF7
  viability, % of control at 15 µM: 131%
[2]
  IC50: 73 µM
[3]
  inhibition: 36%

## CN1c2ccccc2C(=O)N2[C@@H](C(=O)N3CCCCC3)Cc3c([nH]c4ccccc34)[C@H]12
HepG2
  viability, % of control at 15 µM: 75%
MCF7
  viability, % of control at 15 µM: 63%
[2]
  IC50: 8.5 µM

## CN1CCN(C(=O)[C@@H]2Cc3c([nH]c4ccccc34)[C@H]3N(C)c4ccccc4C(=O)N23)CC1
[1]
  inhibition: 5.3%
HepG2
  viability, % of control at 15 µM: 83%
MCF7
  viability, % of control at 15 µM: 68%
[2]
  IC50: 66 µM
[3]
  inhibition: 43%

## CN1c2ccccc2C(=O)N2[C@@H](C(=O)N3CCOCC3)Cc3c([nH]c4ccccc34)[C@H]12
HepG2
  viability, % of control at 15 µM: 94%
MCF7
  viability, % of control at 15 µM: 72%
[2]
  IC50: 58.3 µM

## CN1c2ccccc2C(=O)N2[C@H](C(=O)O)Cc3c([nH]c4ccccc34)[C@@H]12
[1]
  inhibition: 26%
HepG2
  viability, % of control at 15 µM: 107%
MCF7
  viability, % of control at 15 µM: 128%
[2]
  IC50: 60 µM
[3]
  inhibition: 60%
[4]
  inhibition: 61%

## CN1c2ccccc2C(=O)N2[C@H](C(=O)N3CCSCC3)Cc3c([nH]c4ccccc34)[C@@H]12
[1]
  inhibition: 8.2%
HepG2
  viability, % of control at 15 µM: 90%
MCF7
  viability, % of control at 15 µM: 103%
[2]
  IC50: 86.8 µM
[3]
  inhibition: 35%

## CN1CCN(C(=O)[C@H]2Cc3c([nH]c4ccccc34)[C@@H]3N(C)c4ccccc4C(=O)N23)CC1
HepG2
  viability, % of control at 15 µM: 91%
MCF7
  viability, % of control at 15 µM: 74%
[2]
  IC50: 55 µM

## COC(=O)[C@@H]1Cc2c([nH]c3ccccc23)[C@H]2N(C)c3ccccc3C(=O)N12
[1]
  inhibition: 3.3%
HepG2
  viability, % of control at 15 µM: 101%
MCF7
  viability, % of control at 15 µM: 90%
[2]
  IC50: 35 µM
[3]
  inhibition: 80%
[4]
  inhibition: 21%
